Values quoted from earlier work as cited in US20150148304A1, “Novel Peptides and Analogs for Use in the Treatment of Macrophage Activation Syndrome” (Soligenix, Inc., priority 2013, published 2015).

Assays:
[1] = target: T1, TLR9 (Homo sapiens, UniProt Q9NR96); settings: average; US 2011/0136845 Trawick et al.; cited from earlier work
T1 sequence (Q9NR96 26-1032): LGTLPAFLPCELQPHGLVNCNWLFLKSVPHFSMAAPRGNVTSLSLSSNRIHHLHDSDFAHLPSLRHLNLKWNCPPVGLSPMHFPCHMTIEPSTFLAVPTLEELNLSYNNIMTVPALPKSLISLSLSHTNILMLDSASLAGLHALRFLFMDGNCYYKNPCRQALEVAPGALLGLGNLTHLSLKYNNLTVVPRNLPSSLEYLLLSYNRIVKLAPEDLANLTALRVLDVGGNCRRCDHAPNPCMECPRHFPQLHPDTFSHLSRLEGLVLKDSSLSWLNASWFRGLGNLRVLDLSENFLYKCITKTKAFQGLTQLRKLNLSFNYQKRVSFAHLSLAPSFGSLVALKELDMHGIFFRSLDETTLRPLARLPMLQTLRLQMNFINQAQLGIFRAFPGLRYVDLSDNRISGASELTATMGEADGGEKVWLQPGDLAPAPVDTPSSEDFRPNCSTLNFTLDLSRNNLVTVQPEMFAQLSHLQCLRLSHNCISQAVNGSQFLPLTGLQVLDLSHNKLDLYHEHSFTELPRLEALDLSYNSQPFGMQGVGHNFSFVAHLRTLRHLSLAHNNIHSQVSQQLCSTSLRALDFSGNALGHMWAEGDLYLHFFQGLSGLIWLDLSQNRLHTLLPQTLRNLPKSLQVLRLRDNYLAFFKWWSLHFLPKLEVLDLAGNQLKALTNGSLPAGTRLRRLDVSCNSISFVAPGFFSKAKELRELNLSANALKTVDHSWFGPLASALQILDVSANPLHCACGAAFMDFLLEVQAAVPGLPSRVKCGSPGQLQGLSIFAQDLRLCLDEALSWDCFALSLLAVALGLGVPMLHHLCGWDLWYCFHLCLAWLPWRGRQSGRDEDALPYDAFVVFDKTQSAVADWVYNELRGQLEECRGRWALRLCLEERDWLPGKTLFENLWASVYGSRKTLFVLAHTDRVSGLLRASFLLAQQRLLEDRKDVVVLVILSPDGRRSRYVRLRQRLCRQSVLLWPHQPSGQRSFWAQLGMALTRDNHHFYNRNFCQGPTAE

[2] = cited from earlier work
[3] = tested on: macrophage activation syndrome; settings: Ravelli et al. 2001, cited from earlier work

Molecule: O=C1CC[C@]2(O)[C@@H]3Cc4ccc(O)c5c4[C@]2(CCN3CC2CC2)[C@@H]1O5 [(+)-Naltrexone]
- inhibition of TLR9 [1]: 51%

Molecule: O=C1CC[C@@]2(O)[C@H]3Cc4ccc(O)c5c4[C@@]2(CCN3CC2CC2)[C@H]1O5 [Naltrexone]
- time of peak plasma levels after dosing ([2]; oral administration): one
- urinary excretion of unchanged Naltrexone ([2]; share of the elimination pathway): less than 2%

Molecule: cyclosporin A [CyA]
- efficacy in severe or corticosteroid-resistant macrophage activation syndrome ([3]; patients, Mouy et al. 1996): effective
- time to disappearance of fever and improvement of laboratory abnormalities ([3]; some patients): 12 to 24 h
